From PubChem BioAssay AID2252 (Southern Research Specialized Biocontainment Screening …, 2010)

Each compound was assayed on THP-1 viability, CellTiter-Glo luminescence, 72 h (assay: PubChem AID 2252).

Compound	EC50
c1cc2c(cc1C1CCCCC1)c1c3n2CCN=C3CCC1	11.9 µM
Cc1ccc(C(=O)NNC(=S)NC(=O)c2ccccc2)cc1	8.09 µM
Nc1cc(Cl)c2nonc2c1[N+](=O)[O-]	2.73 µM
O=C(Nc1ccc(Cl)cc1)Nc1ccc2c(c1)N1CCN=C1S2	13.9 µM
Clc1ccc(C(c2ccc(Cl)cc2)n2cc[n+](CC(OCc3ccc(Cl)cc3Cl)c3ccc(Cl)cc3Cl)c2)cc1 (stereo not given)	1.45 µM
CC(NCC(O)COCCC12CC3CC(CC(C3)C1)C2)c1ccccc1 (stereo not given)	9.86 µM
Cc1ccc(Nc2c3c(nc4ccccc24)CCC3)cc1	9.1 µM
O=c1[nH][nH]c(-c2ccccc2O)c1C(C[N+](=O)[O-])c1ccc(Br)cc1 (stereo not given)	21.1 µM
CCCCOc1ccc(C(=O)NNC(=S)NC(=O)CC)cc1	3.29 µM
CN1CC(C(=O)c2ccc(Cl)cc2)C(c2ccc(Cl)cc2Cl)C1 (stereo not given)	27.5 µM
O=C(O)c1cn(C2CC2)c2cc(N3CCN(S(=O)(=O)c4ccc5c(c4)OCCO5)CC3)c(F)cc2c1=O	< 0.1 µM
c1cc2c(cc1C1CCCCC1)c1c3n2CCCNC3CCC1 (stereo not given)	5.18 µM
CCSc1ccc2c(c1)N(CCCN1CCN(C)CC1)c1ccccc1S2	12.8 µM
NC1=NC[C@H](Cc2ccc(O)cc2)N1CCCCC1CCCCC1	1.73 µM
CCCCOc1ccc(CSC(=N)N)cc1Cl	10.9 µM
O=C(CC(=O)c1cc(Cl)ccc1O)c1ccccc1	12.3 µM
CN1CCN(CC(=O)N2CCn3c4c(c5cc(C6CCCCC6)ccc53)CCCC42)CC1 (stereo not given)	6.66 µM
CNCCCC1Sc2ccccc2Oc2ccccc21 (stereo not given)	23.6 µM
Cc1ccccc1Nc1cc(C)c2c(O)cccc2n1	5.03 µM
CCCCNCCCOc1cccc(Cl)c1Cl	28.2 µM
CCCCCCCCCCn1c2c(c(=N)c3c1CCC3)CCC2	0.21 µM
Fc1cccc(NC(=S)NCc2ccc(Cl)cc2)c1	46.7 µM
O=C(Nc1nnc(C2COc3ccccc3O2)o1)c1ccc(F)cc1 (stereo not given)	16.8 µM

Compound	EC50
COc1ccc(C(C(=O)Nc2ccc(C(C)C)cc2)N(Cc2ccco2)C(=O)CC2NC(=O)NC2=O)cc1 (stereo not given)	31.9 µM
COc1cc([N+](=O)[O-])cc(/C=N/NC(=O)C(C)Nc2cccc(C)c2)c1O (stereo not given)	27 µM
CCN1CCN(CCNC(=O)c2ccc3c(c2)N(Cc2ccc(F)cc2)C(=O)/C(=C/c2ccccc2)S3)CC1	9.43 µM
Cc1nn(-c2ccccc2)c(C)c1/C=N/n1c(-c2ccc(C(C)(C)C)cc2)n[nH]c1=S	32.1 µM
NC1=NC[C@@H](Cc2ccc(O)cc2)N1CCCCC1CCCCC1	6.98 µM
Cc1ccc(CNCCC2=CCCCC2)cc1	26.7 µM
O=C(CCN1CCN(C(=O)c2ccccc2)CC1)c1ccc(Br)cc1	40.5 µM
OC(CNCCc1ccc(Cl)cc1Cl)COc1ccccc1 (stereo not given)	29.2 µM
CCCOc1ccc(-c2cn3ccccc3n2)cc1	43.5 µM
Cc1ccc(-c2c[n+](CC(=O)Nc3nc(-c4ccccc4)cs3)c3n2CCC3)cc1	13.5 µM
O=C(/C=C/c1ccccc1)NNC(=O)c1ccco1	< 0.1 µM
CCCOc1ccc(CSC2=NCCN2)cc1[N+](=O)[O-]	20.8 µM
CCCCn1c(=N)n(CC(=O)c2ccc(Br)s2)c2ccccc21	5.43 µM
CCCCc1ccc(N/C(N)=N/c2nc(C)cc(C)n2)cc1	6.47 µM
CC(=O)NNC(=S)NC(=O)c1ccccc1	44.8 µM
c1ccc(CN2CCC(Nc3nc(-c4cccs4)nc4ccccc34)CC2)cc1	8.03 µM
C=CCNc1ncnc2c1[nH]c1ccc(Cl)cc12	7.13 µM
CC(NCc1ccc(-c2ccccc2)cc1)C(O)c1ccccc1 (stereo not given)	5.49 µM
Cc1ccc(C[n+]2c(-c3ccc(C)cc3)cc(-c3ccc(C)cc3)cc2-c2ccc(C)cc2)cc1	0.22 µM
CNCc1c(OCc2ccccc2F)ccc2ccccc12	15.2 µM
Cc1nc(N)nc(N)c1CCCc1ccc(Cl)c(Cl)c1	5.79 µM
O=[N+]([O-])c1cc(Cl)cc(/C=N/NC(=S)Nc2ccc(S(=O)(=O)N3CCOCC3)cc2)c1O	27.1 µM
Cc1cc(C2N=C(N)Nc3nc4ccccc4n32)c(C)n1-c1ccccc1Cl (stereo not given)	11.4 µM

Compound	EC50
O=C1CN(/N=C/c2ccc([N+](=O)[O-])o2)C(=O)N1	47.3 µM
COc1ccc(N2C3=C(CC4=C2CC(C)(C)CC4=O)C(=O)CC(C)(C)C3)cc1	7.53 µM
COc1cc(CNCCO)cc(Cl)c1OCc1ccc(Cl)cc1Cl	10.8 µM
O=c1[nH]c(=S)ccn1C1OC(CO)C(O)C1O (stereo not given)	16.3 µM
CC(=O)Oc1ccccc1C(=O)Nc1ncc([N+](=O)[O-])s1	20.2 µM
CN(C)CCCNc1cc(C(C)(C)C)nc2c(-c3ccc(Cl)cc3)cnn12	7.99 µM
CCCCOc1ccc(NC2=NC3(CCCC3)N=C(N)N2)cc1	17.4 µM
CCn1nnc(NC(=O)c2ccc([N+](=O)[O-])o2)n1	13.6 µM
Clc1cccc(CN2CCc3c([nH]c4ccccc34)C2)c1Cl	8.82 µM
CCCCCCCCCCCCCCCC[N+](C)(C)CCN(Cc1ccc(OC)cc1)c1ncccn1	0.36 µM
C=CCc1cc(Cl)ccc1OCCCNCCO	43.1 µM
C[C@H]1c2cccc(O)c2C(O)=C2C(=O)[C@]3(O)C(O)=C(C(N)=O)C(=O)[C@@H](N(C)C)[C@@H]3[C@@H](O)[C@@H]21	29 µM
O=C(Nc1ccc(Cl)cc1)N1CCCN(Cc2ccccc2F)C1	45.8 µM
Oc1ccc(C=Nc2ccc3ncccc3c2)c(O)c1	16.5 µM
CN(CC(=O)Nc1ccc(F)c(F)c1F)c1cnccn1	19.6 µM
CCCCCCCCCCOC(=O)Cn1c(COc2ccccc2OC)[n+](C)c2ccccc21	1.64 µM
Cc1ccc2cc(CN(CCN(C)C)C(=O)Nc3ccc(Cl)cc3)c(=O)[nH]c2c1	19.1 µM
CC1=C([N+](=O)[O-])C(c2cccc(Br)c2)C2=C(N1)c1ccccc1C2=O (stereo not given)	3.1 µM
Cc1cccc2sc(N(CCCN(C)C)C(=O)COc3ccc(Cl)cc3)nc12	24.9 µM
COc1cccc(-c2nnc(NC(=O)c3ccc(Cl)s3)o2)c1	15 µM
CS(=O)(=O)c1ccc2nc(NC(=O)c3ccc(Cl)nc3)sc2c1	46.2 µM
CCOc1ccccc1-c1cc(-c2ccccc2)nc2c1c(=O)n(C)c(=O)n2C	< 0.1 µM
Cc1ccc(S(=O)(=O)NC(C)(C)CSc2nnc(N)s2)cc1	< 0.1 µM

Compound	EC50
Cc1[nH]cnc1C(=O)N/N=C/c1ccc([N+](=O)[O-])s1	13.3 µM
CCCCCCCCC1=NCCc2c1[nH]c1ccccc21	15 µM
CCOc1ccc(Nc2nc(N)c3ccccc3n2)cc1	6.96 µM
Cc1cccc(NC2=NC3(CCCCC3)N=C(N)N2)c1	34.2 µM
COc1cc([N+](=O)[O-])cc(/C=N/NC(=O)c2cccnc2)c1O	29.7 µM
Oc1c(I)cc(Cl)c2cccnc12	14.7 µM
CN(C)CCCN1c2ccccc2Sc2ccccc21	32.6 µM
CCCN1CCC(NCc2cn(C)nc2-c2ccc(Oc3ccccc3)cc2)CC1	9.72 µM
CNC(CC(=O)c1ccc([N+](=O)[O-])cc1)C(Cl)(Cl)Cl (stereo not given)	9.95 µM
CO[C@H]1C=CO[C@@]2(C)Oc3c(C)c(O)c4c(O)c(c5c(c4c3C2=O)NC2(CCN(CC(C)C)CC2)N=5)=NC(=O)C(C)=CC=C[C@H](C)[C@H](O)[C@@H](C)[C@@H](O)[C@@H](C)[C@H](OC(C)=O)[C@@H]1C	26 µM
Oc1ccccc1Nc1nc(NCc2ccco2)c2ccccc2n1	12.6 µM
CCOC(=O)c1nc(C)n(-c2cc(Cl)ccc2Cl)n1	14.9 µM
OC(c1cc(C(F)(F)F)nc2c(C(F)(F)F)cccc12)C1CCCCN1 (stereo not given)	7.61 µM
O=C(C[n+]1cc(-c2ccc(Cl)c(Cl)c2)n2c1CCC2)N1c2ccccc2Sc2ccccc21	10.3 µM
c1ccc2c(c1)nc(N1CCOCC1)c1c3ccccc3[nH]c21	< 0.1 µM
CCCCOc1ccc(C(=O)OC2CC(C)N(C)CC2C)cc1 (stereo not given)	30.7 µM
CCc1ccc2c(c1)Sc1ccccc1CC2N1CCN(C)CC1 (stereo not given)	11.8 µM
NC(N)=N/N=C/c1ccc(OCc2ccccc2Cl)cc1	3.15 µM
CCn1cc(C(=O)NCc2ccc3c(c2)OCO3)c(=O)c2cc(F)c(N3CCN(C(=O)c4ccco4)CC3)cc21	19.9 µM
Cc1ccc2sc(N(CCCN(C)C)C(=O)c3ccc(Br)s3)nc2c1C	21.2 µM
Cc1nonc1C(=O)N/N=C/c1ccc([N+](=O)[O-])o1	40.7 µM
Cc1cc(C)nc(/N=C(\N)Nc2ccc(SC(F)F)cc2)n1	12.8 µM
O=C(/C=C/c1ccco1)NC(=S)NNC(=O)c1ccco1	32.3 µM

Compound	EC50
Fc1ccc(Nc2nc(NCc3ccco3)c3ccccc3n2)cc1	5.9 µM
COc1ccc(CNc2ncnc3c2[nH]c2ccccc23)cc1	39.3 µM
Oc1ccc(C[C@@H]2CNCCN2CCCCC2CCCCC2)cc1	8.53 µM
Cc1cc2ncn(/N=C/c3ccc([N+](=O)[O-])o3)c2cc1C	49.3 µM
Cc1cc(C)c(NC(=O)C[N+](C)(C)CC(O)COc2cccc3ccccc23)c(C)c1 (stereo not given)	12.8 µM
NC1=NC[C@H](c2ccccc2)N1CCc1cc(C(F)(F)F)cc(C(F)(F)F)c1	3.81 µM
CN1CCN(C(c2ccc(Cl)cc2)c2cc(Cl)c3cccnc3c2O)CC1 (stereo not given)	3.11 µM
Cc1oc2c(O)c(O)ccc2c(=O)c1-c1ccccc1	24.9 µM
COC(=O)c1ccc(CSc2ccc3nnc(-c4ccc(OC)c(OC)c4)n3n2)o1	10.3 µM
Cc1cc(C)n(-c2nc(SCCN(C)C)c3c4c(sc3n2)CCCC4)n1	3.25 µM
COc1ccc2[nH]c3c(C)c4ccncc4c(C)c3c2c1	1.45 µM
CCOC(=O)COc1cccc2c(=O)n(CC(=O)N3CCCCC3)ccc12	24.5 µM
O=C(CN1CC[n+]2c(-c3cccs3)csc21)c1ccc(-c2ccccc2)cc1	13 µM
Cc1ccc2c(c1)N/C(=C(\C=C(/Cl)[N+](=O)[O-])[N+](=O)[O-])N2	26.8 µM
Clc1cc(Br)ccc1OCCCNCc1ccccc1	14.7 µM
COc1cccc(Nc2nc(NCC3CCCO3)c3ccccc3n2)c1 (stereo not given)	2.27 µM
COc1ccc(/C=C/C(=O)NC(=S)NNC(=O)c2cnccn2)cc1	2.81 µM
O=C(Nc1nnc(-c2cccs2)o1)c1cccc(Oc2ccccc2)c1	18.6 µM
COc1ccc2sc(N(CCCN(C)C)C(=O)c3ccc(S(=O)(=O)N4CCc5ccccc5C4)cc3)nc2c1	4.42 µM
Nc1nonc1-n1nnc(C(=O)N/N=C/c2cc(Br)ccc2O)c1CSC1=NCCS1	1.29 µM
COc1cccc(/C=N/NC(=O)CNC(=O)COc2cccc(C)c2)c1O	9.52 µM
OCCN1CCN(Cc2cc(Cl)c3cccnc3c2O)CC1	7.5 µM
COc1ccc2nc(N(CCN(C)C)C(=O)/C=C/c3cccs3)sc2c1	16.1 µM
